Our source for the Emax and EC50 values is patent US20260108546A1 (ELI LILLY AND COMPANY, priority 2024, published 2026).

For this assay, the target named is T1, hGIP-R (Homo sapiens, UniProt P48546).
T1 construct: expressed in transfected cells; host or cells: HEK-293 clonal cell lines
T1 sequence (P48546 22-466): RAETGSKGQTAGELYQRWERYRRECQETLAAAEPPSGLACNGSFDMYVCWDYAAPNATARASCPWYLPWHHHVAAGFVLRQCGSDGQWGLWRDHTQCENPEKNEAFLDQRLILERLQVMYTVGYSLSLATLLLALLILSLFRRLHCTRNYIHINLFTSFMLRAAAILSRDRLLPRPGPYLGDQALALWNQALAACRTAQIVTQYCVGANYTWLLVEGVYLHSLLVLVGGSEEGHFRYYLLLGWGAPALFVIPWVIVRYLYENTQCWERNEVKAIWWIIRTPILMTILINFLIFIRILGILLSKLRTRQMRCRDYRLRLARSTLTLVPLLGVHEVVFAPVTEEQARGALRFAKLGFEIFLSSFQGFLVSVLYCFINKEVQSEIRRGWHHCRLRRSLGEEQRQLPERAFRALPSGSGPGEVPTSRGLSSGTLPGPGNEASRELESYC
The experiment in a line: Functional hGIP-R Assay (cAMP formation, HTRF). It is filed as cell-based. As to conditions: for Emax: cAMP efficacy, percent of maximal response to GIP(1-42)OH, 37° C., 0.1% bovine casein, arithmetic mean ± SEM; for EC50: cAMP potency, HEK-293 cells expressing hGIP-R, incubated at 37° C. in the presence of 0.1% bovine casein, geometric mean, read-out: Human GIP-R EC50, nM (SEM, n). As to the method: Functional activity was determined using CAMP formation in HEK-293 clonal cell lines expressing hGIP-R. hGIP-R receptor expressing cells were treated with compound (20 point concentration-response curve in DMSO, 2-fold Labcyte Echo direct dilution, 384 well plate Corning Cat #3570) in DMEM (Gibco Cat #31053) supplemented with 1× GlutaMAX™ (Gibco Cat #35050), 0.1% bovine casein (Sigma C4765-10ML), 250 μM IBMX (3-Isobutyl-1-methylxanthine, Acros Cat #228420010) and 20 mM HEPES (Gibco Cat #15630) in a 20 μL assay volume (final DMSO concentration was 1%). After a 30 min incubation at 37° C., the resulting increase in intracellular cAMP was quantitatively determined using the Revvity CAMP Dynamic 2 HTRF Assay Kit (62AM4PEJ). Briefly, cAMP levels within the cell were detected by adding the cAMP-d2 conjugate in cell lysis buffer (10 μL) followed by the antibody anti-cAMP-Eu^3+-Cryptate, also in cell lysis buffer (10 μL). The resulting competitive assay was incubated for at least 60 min at RT, then detected using a BMG Labtech PHERAstar FSX instrument with excitation at 320 nm and emission at 665 nm and 620 nm. PHERAstar units (emission at 665 nm/620 nm*10,000) are inversely proportional to the amount of cAMP present and were converted to nM cAMP per well using a CAMP standard curve. The amount of cAMP generated (nM) in each well was converted to a percent of the maximal response observed with human GIP (1-42) OH. A relative EC50 value and percent top (Emax) were derived by non-linear regression analysis using the percent maximal response vs. the concentration of compound added, fitted to a four-parameter logistic equation.

On to `COc1cc2cc(-c3ccc([C@H]4C[C@@]45CCN([C@H](Cc4cnn(C(F)F)c4)C(=O)NC(C)(C)Cn4nc(C(F)(F)F)cc4-c4ccc(=O)n(C)c4)C5=O)cc3)cnc2nc1C` (single isomer, unassigned; isomer 1) [Example 105], for which the Emax worked out at 8.43 ± 1.23% and the EC50 is 49.8 nM.
As to `CN1CC(n2cc3cc(-c4ccc([C@H]5C[C@@]56CCN([C@H](Cc5cnn(C(F)F)c5)C(=O)NC(C)(C)Cn5nc(C(F)(F)F)cc5-c5cc(F)c(=O)n(C)c5)C6=O)c(F)c4)cnc3n2)C1` (single isomer, unassigned; isomer 1) [Example 106], the maximum response (Emax) amounted to 77.3 ± 7.69% and the half-maximal effective concentration (EC50) worked out at 36.3 nM.
Regarding `Cn1cc(-c2cc(C(F)(F)F)nn2CC(C)(C)NC(=O)[C@@H](Cc2cnn(C(F)F)c2)N2CC[C@@]3(C[C@@H]3c3ccc(-c4cnc5nn(CCO)cc5c4)cc3F)C2=O)cc(F)c1=O` (single isomer, unassigned; isomer 1) [Example 107], the Emax came to 108 ± 0.709% and the concentration for a half-maximal effect (EC50) was 36.2 nM.
The like results for `Cc1cn2cc(-c3ccc(C4CC45CCN([C@H](Cc4cnn(C(F)F)c4)C(=O)NC(C)(C)Cn4nc(C(F)(F)F)cc4-c4cc(F)c(=O)n(C)c4)C5=O)c(C(F)F)c3)cnc2n1` (single isomer, unassigned; isomer 1) [Example 108] were, in that order, 81.7 ± 1.63% and 0.47 nM.
The like results for `Cc1cn2cc(-c3ccc(C4CC45CCN([C@H](Cc4cnn(C(F)F)c4)C(=O)NC(C)(C)Cn4nc(C(F)(F)F)cc4-c4cnc(C)nc4)C5=O)c(C)n3)cnc2n1` (single isomer, unassigned; isomer 1) [Example 110] were, in that order, 50.8 ± 1.54% and 4.34 nM.
The corresponding values for `Cc1ncc(-c2cc(C(F)(F)F)nn2CC(C)(C)NC(=O)[C@@H](Cc2cnn(C(F)F)c2)N2CCC3(CC3c3ccc(-c4cnc5nn(C)cc5c4)nc3C)C2=O)cn1` (single isomer, unassigned; isomer 1) [Example 111] are 28 ± 0.197% and 6.75 nM.
For the molecule `Cc1ncc(-c2cc(C(F)(F)F)nn2CC(C)(C)NC(=O)[C@@H](Cc2cnn(C(F)F)c2)N2CCC3(CC3c3ccc(-c4cnc5nn(C)cc5c4)nc3C(F)(F)F)C2=O)cn1` (single isomer, unassigned; isomer 1) [Example 112], the Emax came to 62 ± 0.9% and the half-maximal effective concentration (EC50) came out at 3.21 nM.
The like results for `Cn1cc2cc(-c3ccc(C4CC45CCN([C@H](Cc4cnn(C(F)F)c4)C(=O)NC(C)(C)Cn4nc(C(F)(F)F)cc4-c4ccc(=O)n(C)c4)C5=O)c(C(F)(F)F)n3)cnc2n1` (single isomer, unassigned; isomer 1) [Example 113] were, in that order, 45.5 ± 2.18% and 1.22 nM.
The like results for `[2H]C([2H])([2H])n1cc(C[C@H](C(=O)NC(C)(C)Cn2nc(C(F)(F)F)cc2-c2cnc(C)nc2)N2CC[C@@]3(C[C@@H]3c3ccc(-c4cnc5nn(C)cc5c4)cc3Cl)C2=O)cn1` (single isomer, unassigned; isomer 1) [Example 114] were, in that order, 80.3 ± 0.191% and 1.79 nM.
The like results for `[2H]C([2H])([2H])n1cc(C[C@H](C(=O)NC(C)(C)Cn2nc(C(F)(F)F)cc2-c2cnc(C)nc2)N2CCC3(CC3c3ccc(-c4cnc5nn(C)cc5c4)nc3C(F)(F)F)C2=O)cn1` (single isomer, unassigned; isomer 1) [Example 115] were, in that order, 87.3 ± 0.526% and 4.65 nM.
For the molecule `CC(=O)N1CCN(c2ccc(C3CC34CCN([C@H](Cc3cnn(C(F)F)c3)C(=O)NC(C)(C)Cn3nc(C(F)(F)F)cc3-c3cnc(C)nc3)C4=O)c(C(F)(F)F)n2)CC1` (single isomer, unassigned; isomer 1) [Example 116], the maximal response (Emax) was 23.1 ± 0.52% and the EC50 was determined as 127 nM.
The like results for `Cn1cc2cc(-c3ccc([C@H]4C[C@@]45CCN([C@H](Cc4cnn(C(F)F)c4)C(=S)NC(C)(C)Cn4nc(C(F)(F)F)cc4-c4cc(F)c(=O)n(C)c4)C5=O)c(F)c3)cnc2n1` (single isomer, unassigned; isomer 1) [Example 118] were, in that order, 59.3 ± 1.52% and 4.02 nM.
Consider `Cn1cc2cc(-c3ccc([C@H]4C[C@@]45CCN([C@H](Cc4cnn(C(F)F)c4)C(=O)NC4(Cn6nc(C(F)(F)F)cc6-c6cc(F)c(=O)n(C)c6)CC4)C5=O)c(F)c3)cnc2n1` (single isomer, unassigned; isomer 1) [Example 119], for which the Emax amounted to 79.5 ± 5.3% and the half-maximal effective concentration (EC50) was 144 nM.
For `[2H]C([2H])([2H])N(C(=O)C1CC1(C)c1ccc(-c2cnc3nn(C)cc3c2)cc1F)[C@H](Cc1cnn(C(F)F)c1)C(=O)NC(C)(C)Cn1nc(C(F)(F)F)cc1-c1cc(F)c(=O)n(C)c1` (single isomer, unassigned; isomer 1) [Example 140], the Emax amounted to 84.8 ± 5.99% and the half-maximal effective concentration (EC50) came to 51.7 nM.
The corresponding values for `Cc1cn2cc(-c3ccc(C4CC45CCN([C@H](Cc4cnn(C(F)F)c4)C(=O)NC(C)(C)Cn4nc(C(F)(F)F)cc4-c4ccc(=O)n(C)c4)C5=O)c(C(F)(F)F)c3)cnc2n1` (single isomer, unassigned; isomer 1) [Example 153] are 77 ± 2.05% and 0.478 nM.
As to `Cc1cn2cc(-c3ccc([C@H]4C[C@@]45CCN([C@H](Cc4cnn(C(F)F)c4)C(=O)NC(C)(C)Cc4nc(C(F)(F)F)cn4C4CCN(C)C4=O)C5=O)c(Cl)c3)cnc2n1` (single isomer, unassigned; isomer 1) [Example 177], the maximum response (Emax) was 115 ± 1.59% and the concentration for a half-maximal effect (EC50) came out at 0.845 nM.
The like results for `Cn1cc(C[C@@H](NC(=O)C2CC2c2ccc(-c3cnc4nn(C)cc4c3)s2)C(=O)NC(C)(C)Cn2nc(C(F)(F)F)cc2Br)cn1` (single isomer, unassigned; isomer 2) [Example 7] were, in that order, 99.7 ± 0.756% and 246 nM.
For `Cn1cc(C[C@@H](NC(=O)C2CC2c2ccc(-c3cnc4nccn4c3)cc2C(F)(F)F)C(=O)NC(C)(C)Cc2ccc(F)cc2)cn1` (single isomer, unassigned; isomer 2) [Example 29], the Emax is 99.4% and the EC50 worked out at 79.8 nM.
The corresponding values for `Cc1cc(C2CC2C(=O)N[C@H](Cc2cnn(C)c2)C(=O)NC(C)(C)Cc2ccc(F)cc2)ccc1NC(=O)Nc1ccc(F)cc1` (single isomer, unassigned; isomer 2) [Example 50] are 85.5 ± 2.37% and 82.3 nM.
The corresponding values for `Cn1cc(C[C@@H](NC(=O)C2CC2c2ccc(-c3cnc4nn(C)cc4c3)s2)C(=O)NC(C)(C)Cn2nc(C(F)(F)F)cc2-c2ccc(=O)n(C)c2)cn1` (single isomer, unassigned; isomer 2) [Example 60] are 89.8 ± 3.63% and 189 nM.
On to `Cn1cc2cc(-c3ccc(C4CC4C(=O)N[C@H](Cc4cnc5ncccn45)C(=O)NC(C)(C)Cn4cc(C(F)(F)F)cn4)c(F)c3)cnc2n1` (single isomer, unassigned; isomer 2) [Example 71], for which the Emax was 88.4 ± 10.3% and the half-maximal effective concentration (EC50) stood at 74.8 nM.
The like results for `CC(C)(Cn1cc(C(F)(F)F)cn1)NC(=O)[C@@H](Cc1cnc2ncccn12)NC(=O)C1CC1c1ccc(-c2cnc3nn(C(F)F)cc3c2)cn1` (single isomer, unassigned; isomer 2) [Example 72] were, in that order, 102 ± 4.83% and 300 nM.
